Entries after “also recorded” stand apart in the source; their conditions may differ.
Experiments:
[1] = system: formalin-induced pain behavior; assay: Formalin test for pain reduction; type: in vivo; conditions: rats
Protocol: Rats received intraplantar injections of formalin in the hindpaw, and pain behavior consisting of lifting and licking of the injected paw was observed. Drug or co-vehicle was coinjected with the formalin solution (4.5% formalin in 10% DMSO, 100μl, s.c., ipl.).

[2] = system: arachidonic acid-induced paw edema; assay: Arachidonic acid-induced paw edema test; type: in vivo, mice
Protocol: The conditions employed in the paw edema test have been previously described (Calhoun et al., Agents Actions, 21:306-309, 1987; Burstein et al., J. Pharmacology and Experimental Therapeutics, 251:531-535; Burstein et al., J. Med. Chem., 35:3135-41, 1992), with water being substituted for mercury as the displacement medium. Arachidonic acid (1.0 mg) in 25 μl of saline is injected subcutaneously into the plantar surface of the right hindpaw of ether-anesthetized CD-1 female mice (20-25 g) obtained from Charles River Laboratories. The volume of the right foot is then measured to the level of the lateral malleolus by water displacement before treatment and 30 minutes after arachidonic acid injection. An N-fatty acid-amino acid conjugate, in 50 μl of peanut oil, is given p.o. to the mice 30 min prior to the induction of edema by arachidonic acid. The change in paw volume is calculated for each mouse and the significance for each group can be determined by an ANOVA test.
The conditions were previously described by Calhoun et al. (Agents Actions, 21:306-309, 1987), and by Burstein et al. (J. Pharmacology and Experimental Therapeutics, 251:531-535; J. Med. Chem., 35:3135-41, 1992), with water being substituted for mercury as the displacement medium. Arachidonic acid (1.0 mg in 25μl of saline) was injected subcutaneously into the plantar surface of the right hindpaw of ether-anesthetized CD-1 female mice (20-25 g) obtained from Charles River Laboratories. The volume of the right foot was measured to the level of the lateral malleous by water displacement before treatment and 30 minutes after arachidonic acid injection. […] The change in paw volume was calculated for each mouse and the significance for each group was determined by an ANOVA test.

[3] = system: human T lymphocytes; conditions: Burstein et al. 2000; cited from earlier work
[4] = system: RAW 264.7 murine monocyte cells; assay: RAW cell proliferation (MTT assay); type: cell-based; conditions: 24 hours treatment; 25, 50 and 100 mM
Protocol: Cells were maintained in MEM containing 0.5% serum overnight. […] After a 24 hour incubation period, […] MTT (Sigma Co) solution (5 mg/ml in PBS) was added to each well and incubated for 2 hours at 37° C. Then, cells were triturated in 1.1 ml isopropanol MTT solubilization solution (Sigma Co). […] of this mixture was then transferred in duplicate to a 96 well plate and the optical density recorded using a ThermoMax® microplate reader at […] absorbance. Based on a standard curve with known numbers of cells, experimental readings were in the linear range for cell numbers.
Values shown in FIG. 5 are optical density readings obtained using the MTT assay and are directly proportional to the numbers of cells. They are the means of four replicates ± SD. […] The values shown are the optical density readings obtained from the MTT assay where a value of 0.5 is approximately equivalent to 2×10^4 cells. Vehicle treated cells served as the control and gave a reading of 0.396±0.047 O.D. units. The data shown is representative of three independent experiments.

[5] = system: blood levels of anandamide; conditions: 10 mg/kg p.o., rats, 45 minutes post treatment, vs vehicle-treated
Protocol: Anandamide and NAGly levels were measured in plasma extracts by HPLC-MS/MS with d8-anandamide added as an internal standard. Reverse phase HPLC was performed on a 100×1 mm i.d. column packed with ODS Hypersil® (3 μm, 120 A pore size, Keystone Scientific, Inc., Bellefonte, Pa.). A Rheos® 2000 micro HPLC pumping system was used to pump the mobile phase (90% methanol, 10% 0.05% pH 5.7 aqueous ammonium acetate buffer) at 50μl/minute. The outlet from the column was connected directly to the electrospray ion source of a Finnigan® LCQ quadrupole ion trap mass spectrometry system. Positive ion electrospray ionization was used with the source at 4500 V, the capillary at 200° and the nitrogen sheath gas at a relative setting of 60. NAGly eluted at 1.4 minutes and was detected by MS2 of its MH+ion (m/z 362.2) with an isolation window of 2.5 Th and relative collision energy (CID) of 29%. Full product ion spectra were collected from m/z 95-370 and peak areas from ion plots of m/z 287.2 were used for quantitation. Anandamide and d8-anandamide were similarly detected using their MH+ions (m/z 348.2 and 356.2) as precursors with isolation windows of 2.5 Th and CID at 30%. […] Concentrations of NAGly and anandamide were calculated from their peak area ratios to the internal standard with reference to an external calibration curve. […]

[6] = system: human T lymphocytes; assay: Proliferation of anti CD3, CD4 treated human T lymphocytes; type: cell-based; conditions: 0.1 to 1.0 mM, vs vehicle (DMSO)
[7] = system: NF-κB; assay: NFk-B inhibition studies in PBM (DNA binding, autoradiographic-PAGE); type: cell-based; conditions: 1 hour, then LPS 10 ng/ml 60 minutes; human PBM, two donors
Protocol: PBM from two donors were prepared and treated separately. Cell extracts were then obtained and analyzed for DNA binding of NF-kB, as determined by autoradiographic-PAGE measurement, according to the following method. […] Media were then removed and the cells were transferred to 1.5 ml microcentrifuge tubes and washed 2 times with ice cold PBS. After centrifugation at 10,000 rpm, PBS was removed and 0.5 ml of cytoplasmic extraction buffer (buffer A) was added to the cell pellet. Tubes were vortexed and placed on ice for 10 minutes, then centrifuged at 12,000 rpm for 5 minutes. Cells were washed once with buffer A, which was then added to previous cytosol extract fraction. Cytoplasmic extracts were saved at −80° C. until use. 0.1 ml of cold nuclear extraction buffer (buffer B) was then added to precipitated nuclei and incubated for 60-120 minutes in ice. Nuclear extracts were obtained by centrifugation at 12,000 rpm for 10 minutes and saved at −80° C. until use. (Extraction buffer A is a hypotonic solution and contains HEPES, KCl, EDTA, EGTA, DTT, PMSF, leupeptin, antipain, aprotinin, and NP-40 detergent. Extraction buffer B is a high salt buffer and contains all of the above agents plus glycerol.) The protein concentrations of the nuclear extracts were determined by the Bradford protein assay (Coumassie blue staining). […] Gels were scanned and analysed utilizing the Adobe software for PC.

[8] = system: IL-1β; assay: IL-1β release from human peripheral blood monocytes (ELISA), LPS stimulated or not stimulated; type: cell-based; design: IL-lé release from PBM not stimulated with LPS (adherence only): dose or concentration left out as unconfirmed; conditions: for IL-lé secretion from LPS stimulated peripheral blood mononuclear cells: 60 min preincubation, LPS 10 ng/ml 18 hours; for IL-lé release from PBM not stimulated with LPS (adherence only): unstimulated cells, 18 hours
Protocol: Cells (2×106) were incubated for 60 minutes with either agent at the indicated concentrations. Vehicle (0.5% DMSO) treated cells served as controls. Cells were then not stimulated (FIG. 3A) or stimulated (FIG. 3B) with LPS (10 ng/ml) for 18 hours, at which time supernatant IL-lé was measured by ELISA. Values shown are the means obtained from triplicate samples (Control A=826 pg/ml; Control B=8.68±0.5 ng/ml).

[9] = system: anandamide levels in RAW cells; assay: Anandamide levels in intact cultured RAW cells (HPLC-MS/MS); type: cell-based, murine; design: elevation of basal concentrations of anandamide: dose or concentration left out as unconfirmed
Protocol: Cells were grown as described previously (Pestonjamasp and Burstein, Biochim Biophys Acta, 1394(2-3):249-60, 1998).

[10] = system: arachidonic acid release in RAW cells; assay: Arachidonic acid release in RAW cells; type: cell-based, murine
Protocol: Radiolabelled arachidonic acid was incorporated into the cellular lipid pools for 20 hours. […] Over the concentration range of 1.6-32 mM, a 300% increase in labeled, free arachidonic acid was found in the media when compared to vehicle treated control values. Media from cells in the control group contained 8,800±1600 dpm.
The cells were grown in MEM with 1% penicillin-streptomycin and 10% fetal bovine serum at 37° C. under 95% […]:5% carbon dioxide to about 85% confluence. Cells were contained in 24-well plates and labeled with 100,000 dpm/ml/well of ^3H or ^14C arachidonic acid at 37° C. for 20 hours (Pestonjamasp and Burstein, Biochim Biophys Acta, 1394(2-3):249-60, 1998). The wells were washed 4 times with 0.5% BSA in MEM followed by incubation in 1 ml 0.1% BSA-MEM for 60 minutes. […] Control values were obtained with 10 μl of vehicle. Media were collected, centrifuged at 3000×g to remove cells, and 0.1 ml withdrawn and assayed for radioactivity by liquid scintillation counting.

[11] = system: IL-1β; conditions: concentrations of 1 μm and 10 μm; Burstein et al. 2000; cited from earlier work
[12] = system: human T-lymphocytes; assay: PHA stimulated T-cell proliferation (BrDU incorporation); type: cell-based; conditions: 0.1-10 mM, PHA 10 ng/ml, 72 hours
Protocol: The cells were then stimulated with PHA (10 ng/ml) and incubated for 72 hours. A control set treated with NAGly/DMSO not stimulated with PHA was incubated in parallel. Cell numbers were determined by measuring BrDU incorporation for 24 hours. The values shown (see “PRO[…]” on the y-axis) are the ratios of the optical density readings from treated and control cells.
Cell proliferation in vitro was measured by incorporation of 5-bromo-2′-deoxyuridine (BrDU) instead of thymidine into the DNA of proliferating cells. […] Cells (2×10^5 per well) were then cultured in 96 well, flat bottomed microtiter plates and stimulated with PHA (10 ng/ml) or not stimulated. Cultures were maintained for 72 hours in a standard cell incubator at 37° C. BrDU was then added to all wells and cells are then reincubated for 24 hours. The medium was removed and the cells were fixed and DNA was denatured. Anti-BrDU-peroxidase was added and the immune complex was detected by substrate (tetramethylbenzidine) reaction. The reaction was stopped with […] sulfuric acid (1N) and the product was quantified by measuring the absorbance at 492 nm with reference at 650 nm. Absorbance correlated directly to the amount of DNA synthesis, and, thereby, to the number of proliferating cells in each culture.

[13] = 275 nmol coinjected with formalin

**Q.** Which “pain suppression in the formalin test” value [1, 13] does the source give for NCC(=O)O [glycine, reference compound] here?
**A.** Neither glycine nor arachidonic acid (275 nmol) suppressed pain

**Q.** For COc1ccc2c(c1)c(CC(=O)O)c(C)n2C(=O)c1ccc(Cl)cc1 [indomethacin, reference compound], which “paw edema response of the reference NSAID” value ([2]; 0.2 mg/kg) is on record?
**A.** equivalent response

**Q.** With N-arachidonyl glycine [NAGly] as the molecule, how does the “proliferation of CD3-CD4 antibody-stimulated T-cells, prior observation” value [3] read?
**A.** biphasic effect

**Q.** And the “inhibition of RAW cell proliferation (MTT optical density)” value [4]?
**A.** dose-related inhibition; also recorded: Significant decreases in cell numbers; also recorded: significant inhibition of cell proliferation

**Q.** What about the “second phase (tonic pain) of the formalin response” value ([1]; 275 nmol coinjected with formalin, intraplantar) of the same molecule?
**A.** markedly suppressed

**Q.** And the “first phase (acute pain) of the formalin response” value ([1]; coinjected with formalin, intraplantar)?
**A.** no effect

**Q.** And the “rise in blood levels of anandamide” value [5]?
**A.** nearly ten-fold rise

**Q.** And the “proliferation of anti CD3, CD4 treated human T lymphocytes” value (from here on “proliferation of anti CD3”) [6]?
**A.** inverse dose-related increase; also recorded: stimulatory at low concentrations and somewhat inhibitory at higher concentrations

**Q.** And the “binding of NF k-B to DNA / NFk-B activation” value [7]?
**A.** effectively reduces; also recorded: strong inhibitory effect

**Q.** What about the “IL-lé secretion from LPS stimulated peripheral blood mononuclear cells” value (“IL-lé secretion” below) [8] of the same molecule?
**A.** more effective inhibitor than anandamide; also recorded: suppresses; also recorded: inhibitory in a dose-related fashion

**Q.** And the “IL-lé release from PBM not stimulated with LPS (adherence only)” value [8]?
**A.** more effective inhibitor than anandamide; also recorded: striking reduction; also recorded: markedly reduces

**Q.** What about the “elevation of basal concentrations of anandamide” value [9] of the same molecule?
**A.** 50%

**Q.** And the “increase in labeled, free arachidonic acid in the media” value ([10]; 1.6-32 mM, 60 minutes, vs vehicle treated control)?
**A.** 300%

**Q.** What about the “stimulation of arachidonic acid release” value ([10]; range of 2-32 mM) of the same molecule?
**A.** three fold stimulation

**Q.** And the “reduction of paw volumes” value ([2]; 4 mg/kg orally, vs vehicle treated)?
**A.** reduced paw volumes by one half

**Q.** And the “paw edema response compared with indomethacin” value ([2]; NAGly 4 and 40 mg/kg vs 0.2 mg/kg indomethacin)?
**A.** equivalent response

**Q.** What about the “reduction of paw edema” value ([2]; doses of 4 and 40 mg/kg p.o., 30 min before arachidonic acid, vs untreated control mice that received only arachidonic acid) of the same molecule?
**A.** more than 50%

**Q.** And the “IL-1β secretion from stimulated human PBMC” value [11]?
**A.** modestly suppress

**Q.** With “Deuterated N-arachidonylglycine [d8-NAGly]” as the molecule, how does the “elevation of basal concentrations of anandamide” value [9] read?
**A.** 50%

**Q.** What about the “increase in anandamide (unlabelled)” value ([9]; 10 mM deuterated NAGly) of the same molecule?
**A.** ~3 ng/mL

**Q.** What about the “increase in d8-anandamide” value ([9]; 10 mM deuterated NAGly) of the same molecule?
**A.** < 0.5 ng/mL

**Q.** Which “pain suppression in the formalin test” value [1, 13] does the source give for CCCCC/C=C\C/C=C\C/C=C\C/C=C\CCCC(=O)O [arachidonic acid, reference compound] here?
**A.** Neither glycine nor arachidonic acid (275 nmol) suppressed pain

**Q.** With CCCCC/C=C\C/C=C\C/C=C\C/C=C\CCCC(=O)NCCO [anandamide, reference compound] as the molecule, how does the “proliferation of anti CD3” value [6] read?
**A.** either no effect or a modest inhibition

**Q.** And the “proliferation of anti CD3” value ([6]; listed as Anandamide)?
**A.** only inhibition

**Q.** What about the “IL-lé secretion” value [8] of the same molecule?
**A.** smaller effect

**Q.** What about the “IL-lé secretion” value ([8]; listed as Anandamide) of the same molecule?
**A.** less effective than NAGly

**Q.** And the “IL-lé release from PBM not stimulated with LPS (adherence only)” value [8]?
**A.** less effective than NAGly

**Q.** And the “proliferation of PHA stimulated T-cells (proliferation index)” value [12]?
**A.** little or no effect

**Q.** What about the “proliferation of PHA stimulated T-cells (proliferation index)” value ([12]; listed as Anandamide) of the same molecule?
**A.** no significant effects

**Q.** What about the “IL-1β secretion from stimulated human PBMC” value [11] of the same molecule?
**A.** modestly suppress

From patent publication US20030022938A1, “N-fatty acid-amino acid conjugates and therapeutic uses” (priority 2001, published 2003)
